Tested on: ovariectomized (OVX) rat skeleton
Test: Continuous combination therapy protocol in OVX rats, pQCT of femur
Format: in vivo, Sprague-Dawley (S-D) female rats
Details: 4 weeks treatment, EP4 agonist 0.3 mg/kg/d by Alzet pump, E2 0.01 mg/kg/d by pellets
Excerpt: Prostaglandin E2 (PGE2) restores bone mass by stimulating both bone formation and bone resorption but in favor of bone formation in ovariectomized (OVX) rat skeleton. 5-(3-{2S-[3R-Hydroxy-4-(3-trifluoromethyl-phenyl)-butyl}-5-oxo-pyrrolidin-1-yl}-propyl)-thiophene-2-carboxylic acid, an EP4 receptor selective agonist, can mimic PGE2's systemic bone anabolic effects when given by daily subcutaneous injection. However, like PGE2, slow release delivery of 5-(3-{2S-[3R-hydroxy-4-(3-trifluoromethyl-phenyl)-butyl}-5-oxo-pyrrolidin-1-yl}-propyl)-thiophene-2-carboxylic acid, by Alzet pump may cause bone loss by stimulating both bone resorption and bone formation but in favor of bone resorption in OVX rat skeleton. Estrogen (17-βestradiol) inhibits bone resorption and turnover, thus preventing bone loss in OVX rats. […] Sprague-Dawley (S-D) female rats were sham-operated (n=20) or OVX (n=50) at 3.5 months of age. Three and an half months post-surgery, OVX rats were treated with either vehicle, 5-(3-{2S-[3R-hydroxy-4-(3-trifluoromethyl-phenyl)-butyl}-5-oxo-pyrrolidin-1-yl}-propyl)-thiophene-2-carboxylic acid at 0.3 mg/kg/d (by Alzet pumps in subcutaneous area, […] release rate, for duration of 14 days, replace the pumps at day 15), or 17-βestradiol (E2) at 0.01 mg/kg/d (administered by 30 day release pellets), or combined 5-(3-{2S-[3R-hydroxy-4-(3-trifluoromethyl-phenyl)-butyl}-5-oxo-pyrrolidin-1-yl}-propyl)-thiophene-2-carboxylic acid at 0.3 mg/kg/d (by Alzet pumps in subcutaneous area, […] release rate, for duration of 28 days) and 17-βestradiol (E2) at 0.01 mg/kg/d (administered by 30 day release pellets) for 4 weeks. Total mineral density and cortical bone area of distal femoral metaphysis and femoral shaft were determined by peripheral […] computerized tomography (pQCT) as described previously (Ke H. Z. et al., Lasofoxifene protects against the age-related changes in bone mass, bone strength, and total serum cholesterol in intact aged male rats. J. of Bone and Mineral Research, 2001;16:765-773).

SMILES	change in cortical bone area of distal femoral metaphysis compared with OVX controls	change in cortical bone area of femoral shaft compared with OVX controls	change in total mineral density of distal femoral metaphysis compared with OVX controls	change in total mineral density of femoral shaft compared with OVX controls
O=C(O)c1ccc(CCCN2C(=O)CC[C@@H]2CC[C@@H](O)Cc2cccc(C(F)(F)F)c2)s1 [5-(3-{2S-[3R-Hydroxy-4-(3-trifluoromethyl-phenyl)-butyl]-5-oxo-pyrrolidin-1-yl}-propyl)-thiophene-2-carboxylic acid]	−15%	no significant change	−15%	no significant change
C[C@]12CC[C@@H]3c4ccc(O)cc4CC[C@H]3[C@@H]1CC[C@@H]2O [17-βestradiol (E2), 17β-estradiol]	did not cause significant change	no significant change	did not cause significant change	no significant change
